This is an account of results in PMC8720282 (ACS chemical biology, 2021).

In this data set the test system is defibrinated rabbit red blood cells. The experiment in a line: Hemolysis assay. The class given is cell-based. The note with it: defibrinated rabbit RBCs, triplicate on three separate days.

With `CC(C)(C)CC(C)(C)c1ccc(OCCO)cc1` [Triton X], the “hemolysis in THY media alone” value was “significant degree of hemolysis”.
